Laboratory results taken from patent US7893094B2, “Amphiphilic pyridinium compounds, method of making and use thereof” (The Henry M. Jackson Foundation for the Advancement of …, priority 2003, dated 2011).
Read-outs that look alike come from different tables or passages of the source.

System: IL-8 secretion from CF IB-3 cells
Test: Suppression of spontaneously-elevated (constitutive) IL-8 secretion in IB-3 CF lung epithelial cells, IL-8 ELISA normalised to DNA
Assay type: cell-based
Conditions: for loss of potency: IL-8 secretion, relative to the most potent analogue, Compound 3
Experimental: The CF lung epithelial cells IB3 and S9 have been previously described [Zeitlin et al., 1991; Eidelman et al., 2001a)]. Both […] and S9 cells were grown in serum-free LHC-8 medium (Biofluids), formulated without gentimycin. CF tracheal epithelial cells (2CFTE29o-) were obtained from University of Vermont. The latter cells were grown in EMEM (Biofluids), supplemented with 10% fetal bovine serum (FBS) and 1% Penicillin G-Streptomycin.
Initial assays for dug effects in the screening paradigm were performed in duplicate at 10, 3, 1, and 0.3 μM concentrations on IB-3 cells grown in 96 well microtiter plates. Each individual plate contained IB-3 and IB-3/S9 cells to set the boundary conditions of the assay. CPX and DAX, 5 μM each, were included in separate wells as positive controls. “Hits” in the screen were chosen on the basis of at least a 50% reduction in constitutive IL-8 secretion. Following a positive retest, candidate compounds were taken off-line for more detailed analysis under the exact same assay conditions. […] In most circumstances we use a maximum final solvent concentration of 0.1% DMSO or 0.01% ETOH.
The details of this assay have been described in a previous publication (Eidehman et la., 2001 a). Briefly, IB-3 cells are grown in 96 well microtiter plates to 80% confluency. Drugs, diluted in LHC-8 medium at the given concentrations, are added, and the cells allowed to incubate for an additional 24 hours. To initiate the experiment, cells are washed with fresh LHC-8 medium, and then incubated for an additional 16 hours in the same medium supplemented with drug. At the end of the time period, the supernatant solutions are collected and assayed for IL-8 by and ELISA assay. Alternatively, the samples are immediately frozen at −80° C. […] The IL-8 ELISA assay was assembled from bulk materials purchased from R&D, and performed exactly according to the manufacturers specifications. To detect possible drug toxicity on cells, as well as normalize to total cells per well, we measure the double stranded DNA content of cells attached to the plate after removal of supernatant solutions for IL-8 assay. Cells remaining on the plate are then fixed with 10% formalin for 30 minutes at room temperature before being incubated with propidium iodide (kit from Boehringer Mannheim). Propidium iodide content in each well is then measured with an automated fluorescence plate reader (FLUOstar Optima, MBG Lab Technologies). Final IL-8 data are calculated as a ratio of secreted IL-8 to DNA for each well. On occasion, cell proliferation assays are also carried out using the XTT assay (Roche).

[1] = inhibition of IL-8 secretion from CF IB-3 cells, Table 3 prints no unit (b104 gives μM for Compound 3), read-out: IC50

Molecule	IC50 [1] [µM]	activity on IL-8 secretion/production, in words	further results
8-(3-carboxyamido-pyridinium)-n-octylα-methyl-2-(4[2-methylpropyl]benzene)-acetate iodide [Compound 18]	5.56 ± 0.98		
8-Pyridinium-n-octyl benzoate iodide [Compound 11]	> 30		
8-Pyridinium-n-octyl propionate iodide [Compound 7]	12 ± 0.8		loss of potency: 34 fold
C[C@H](OCc1ccccc1)C(=O)OCCCCCCCC[n+]1ccccc1 [Compound 10, S-8-Pyridinium-n-octyl α-benzyloxy-2-propionate iodide]	> 30		
CC(C(=O)OCCCCCCCC[n+]1ccccc1)c1ccc(NC(=O)OC(C)(C)C)cc1.[I-] (stereo not drawn) [Compound 16]	4.6 ± 0.9	retention of the activity	
CC(C(=O)OCCCCCCCC[n+]1ccccc1)c1ccc(N)cc1.I.[I-] (stereo not drawn) [Compound 17, 8-Pyridinium-n-octyl α-methyl-2-[4-ammonium-phenyl]acetate iodide]	> 30	eliminated activity	
CC(C)Cc1ccc([C@H](C)C(=O)OCCCCCCCC[N+]2(C)CCOCC2)cc1.[Br-] [Compound 21, S-8-[N-Methylmorpholinium-n-octyl α-methyl-2-(4]2-methylpropyl]benzene)acetate bromide]	24 ± 1		
R-8-Pyridinium-n-butyl α-methyl-2-phenylacetate iodide [Compound 1]	> 30		
R-8-Pyridinium-n-decyl α-methyl-2-phenylacetate iodide [Compound 4]	2.52 ± 0.39		
R-8-Pyridinium-n-hexyl α-methyl-2-phenylacetate iodide [Compound 2]	> 30		
R-8-Pyridinium-n-octyl 2-hydroxy-3-phenylpropionate iodide [Compound 12]	> 30	no activity was evident	
R-8-Pyridinium-n-octyl α-ethyl-2-phenylacetate iodide [Compound 8]	3.16 ± 0.52	eliminated the activity	
R-8-Pyridinium-n-octyl α-hydroxy-α-methyl-2-phenylacetate iodide [Compound 6]	> 30	failed to restore the activity	
R-8-Pyridinium-n-octyl α-methyl-2-phenylacetate iodide [Compound 3]			IC50 (IB-3 CF cells, read-out: IC50, inhibition of IL-8 secretion): 0.35 µM; stereoselectivity of action in favor of the (R)-isomer (IL-8 production, Compound 3 (R) versus its enantiomer Compound 5): > 70 fold
S,S-1.8-di((α-methyl 2-(4-[2-methylpropyl]phenyl acetoxy)-n-octane [Compound 22]	> 30	eliminated the activity	
S-8-(4-2-hydroxy-ethyl)pyridinium)-n-octyl α-methyl-2-(4-[2-methylpropyl]benzene)acetate bromide [Compound 20]	18 ± 0.9		
S-8-(4-n-Prolpylpyridinium)-n-octyl α-methyl-2-(4-[2-methylpropyl]benzene)acetate bromide [Compound 19]	3.3 ± 0.5		
S-8-Pyridinium-n-octyl 2-hydroxy-3-phenylpropionate iodide [Compound 13]	> 30	no activity was evident	
S-8-Pyridinium-n-octyl α-methoxy-2-phenylacetate iodide [Compound 9]	> 30	failed to restore the activity	
S-8-Pyridinium-n-octyl α-methyl-2-(4-[2-methylpropyllbenzeneacetate bromide [Compound 15]	2.2 ± 0.8		loss of potency: 6 fold
S-8-Pyridinium-n-octyl α-methyl-2-phenylacetate iodide [Compound 5]	> 25	much less active	
